One compound from patent US20080199517A1, “Composition and a process thereof” (priority 2007, published 2008) can be followed below.

The structures appear in SMILES notation.

The test system of the experiment is castrated male adolescent rats. Briefly: Anabolic activity in castrated rats: organ weight. It is filed as in vivo, rats of Swiss Wistar strain. The settings on record: castrated animals, result in words. The method, then:
Male Adolescent rats of Swiss Wistar strain of body weight 55 gms are chosen for this experiment and are castrated. The castrated groups are divided into 2 groups. • 1. Control group castrated animals n=6 • 2. Drug treated castrated animals treated with test compound at 25 mg/kg n=6
Both the groups are fed ad libitum food and water and observed for 28 days. Their serum at the beginning of the experiment and at the end of the experiment are drawn and checked for Total testosterone, and free testosterone. The animals are sacrificed at the end of the experiment and seminal vesicle; ventral Prostate and Levator Ani are removed and weighed. These organ weights are compound with the control animals.

Turning to `CC(COC1OC(CO)C(O)C(O)C1O)C(C)CC1(O)CC2CC3C4CC=C5CC(OC6OC(CO)C(O)C(O)C6OC6OC(C)C(O)C(O)C6O)CCC5(C)C4CCC3(C)C2C1C` (stereo not shown) [saponin of structural formula I], the anabolic activity result is listed as “does not showed any activity”.
